# According to US5733904A, “Method for prevention and treatment of viral infectious diseases for viral suppression” (priority 1996, dated 1998):
# “Also recorded” adds a separate entry of the source.
# Assays:
# Acute toxicity in rats = assay: Acute toxicity in rats; set-up: species or system rat (Jcl: Wistar, 5 weeks); conditions: rat, in vivo
# Procedure: Acute toxicity of the compounds of the present invention were conducted on rats and mice, and low toxicity was confirmed.
# [1] = system: HIV-1 p24 gag protein, HIV-1 infected MOLT-4 cells; assay: Suppressive action of HIV production (p24 gag protein in culture supernatant, ELISA); assay type: cell-based; conditions: FIG. 4; 5 days; hydrochloride
# Procedure: Suppressive action of HIV production (extracellular release from cells). Cells obtained by culturing MOLT-4 (culture condition: 37° C., 5% CO2 /95% air. RPMI medium (GIBCO Corp.) containing 10% FBS) were adjusted to a preferable number of cells (1×10^5 cells/50 μl). The cell suspension, 50 μl, (infection with MOLT-4 and HIV-1: M.O.I.=1.0) were put in a 96 hole microplate and cultured for 1 hour to infect the cells. A solution of the compounds shown below, 100 μl, was added in each well and cultured for 5 days. The cultured solution was transferred into a plastic tube (Eppendorf Corp.) and centrifuged. The amount of p24 gag protein in the cultured supernatant medium wa assayed by using an Abbott kit (ELISA: Dinabot Co.). FAS, H-7 and KN-62 were used as the compound, and a solution without the compound was used as a control.
# [2] = system: HIV-1 (LAV-1 strain) in MOLT-4 cells; assay: Inhibitory activity of HIV syncytia formation: HIV-1 acute-phase infection; assay type: cell-based; conditions: in concentrations of at least 1.0 μM; 48 hours
# Procedure: a) Activity of the medicament on HIV-1 acute-phase infection:
# Cells obtained by culturing MOLT-4 (American Type Culture Collection ATCC CRL-1582) in RPMI medium (GIBCO Corp.) containing 10% FBS (fetal bovine serum: GIBCO Corp.) (culture condition: 37° C., 5% CO2 /95% air) were prepared to aliquot number of cells (1×10^5 cells/50 μl). The cell suspension, 50 μl and the liquid preparation, 50 μl containing HIV-1 (LAV-1 strain, Wain-Hobson et al., Cell 40: 9-17, 1985) in RPMI medium with 10% FBS were put into each well of a 96 hole microplate and cultured for 48 hours (Infectious condition of MOLT-4 and HIV-1: M.O.I.=4.0).
# Each compound was dissolved in RPMI medium containing 10% FBS at the final concentration as shown in FIG. 1 to prepare the medicament solution. The medicament solution, 100 μl was added to the mixture of MOLT-4 cell preparation and HIV-1 preparation at the time of mixing with MOLT-4 and HIV-1 to prepare the final volume of the liquid, 200 μl. The number of formed syncytia were microscopically counted.
# Tested compounds were: FAS (fasudil hydrochloride, Chem. Pharm. Bull., 40 (3), 770-773, (1992)), C kinase inhibitor H-7 (1-5-isoquinolinylsulfonyl)-2-methyl-piperazine, Sigma Corp.), and calmodulin kinase II inhibitor KN-62 (1-(N,O-bis-[5-isoquinolinylsulfonyl]-N-methyl-L-tyrosyl)-4-phenyl-piperazine, Sigma Corp., Neuroscience Lett., 129, 47 (1991)) .
# The control group without the compound was prepared by replacing the medicament solution, 100 μl.
# Syncytium formation activity was calculated by comparing the syncytia formation in the test group to that of the control group in the following equation.
# Syncytium formation activity=number of syncytia formed in the medicament-added group/number of syncytia formed in the no-medicament-added group.
# [3] = system: HIV-1 (LAV-1) persistently infected MOLT-4 cells with non-infected MOLT-4 cells; assay: Inhibitory activity of HIV syncytia formation: HIV-1 chronic-phase infection; assay type: cell-based
# Procedure: b) Activity of the medicament on HIV-1 chronic-phase infection:
# Cells obtained by culturing MOLT-4 (culture condition: 37° C., 5% CO2 /95% air, RPMI medium (GIBCO Corp.) containing 10% FBS) were adjusted to a preferable number of cells (1×10^5 cells/50 μl). HIV-1 (LAV-1) preparation, 50 μl was added to the cell suspension, 50 μl and subjected to a mixing culture (infectious condition of HIV-1 to MOLT-4: M.O.I.=1). The infected cell mixture was cultured by exchanging a fresh culture medium every 3 days at a volume rate of 2:5. The culture was continued for more than 1 month to prepare persistent infected cells. The concentration of the persistent infected cells was adjusted to a preferable number of cells (1×10^5 cells/50 μl ) (the persistent infected cell preparation).
# Cell preparation without infection was prepared by culturing MOLT-4 (culture condition: 37° C., 5% CO2 /95% air, RPMI medium (GIBCO Corp.) containing 10% FBS) and adjusting the concentration to a preferable number of cells (1×10^5 cells/50 μl).
# The persistent infected cell preparation, 50 μl, was placed in the wells of a 96 hole microplate and the non-infected cell preparation, 50 μl, was added therein and cultured for 48 hours. Numbers of the formed syncytia were counted microscopically.
# Each compound solution tested was added, 100 μl, at the time of mixing the persistent infected cell preparation with the non-infected cell preparation, to provide the final concentrations shown in FIG. 2 (medicament added test group).
# The no-medicament-added group (control group) was prepared by replacing the compound solution, 100 μl.
smiles,measurement,setting,value
"Cl.O=S(=O)(c1cccc2cnccc12)N1CCCNCC1 [FAS, hexahydro-1-(5-isoquinoline-sulfonyl)-1H-1,4-diazepine hydrochloride]",LD50,"Acute toxicity in rats; iv, i. v., female",63.9 mg/kg
same,LD50,"Acute toxicity in rats; iv, i. v., male",59.9 mg/kg
same,LD50,"Acute toxicity in rats; po, p. o., female",348 mg/kg
same,LD50,"Acute toxicity in rats; po, p. o., male",335 mg/kg
same,LD50,"Acute toxicity in rats; sc, s. c., female",128 mg/kg
same,LD50,"Acute toxicity in rats; sc, s. c., male",123 mg/kg
same,p24 gag protein in the cultured supernatant medium / HIV-1 generation,[1],decreased p24 gag protein in the cultured supernatant medium and suppressed HIV-1 generation; also recorded: apparently stronger than that of H-7 (-.increment.-) and KN-62 (-.quadrature.-)
same,inhibition of syncytia formation,[2],90%
same,viral transmission from persistent infected cells to non-infected cells,[3],suppressed
same,inhibitory activity for syncytium formation,"[3]; FIG. 2, 48 hours",extremely high suppressive action on syncytium formation
same,minimal effective concentration,"[3]; Human immunodeficiency virus 1, MOLT-4, 48 hours, persistent infected cells mixed with non-infected cells, read-out: concentration showing inhibitory activity for syncytium formation",≥ 3.75 µM
